# Measured values taken from patent publication US12076313B2 (CELISTA PHARMACEUTICALS LLC, priority 2020, dated 2024).
# Experiment: Rat topical application study: effectiveness at low dose and topical absorption
# Assay type: in vivo
# Conditions: rats, topical, 20 μg/100 μL
# Protocol: A study was performed in rats with formulations A and B, and a control formulation. Formulation A was IMQ+penetration enhancer (P.E.) at 20 μg/100 μL. […] The Control formulation was IMQ at 20 μg/100 μL in ethanol.
smiles,measurement,value
"CC(C)Cn1cnc2c(N)nc3ccccc3c21 [Imiquimod, 1-(2-methylpropyl)-1H-imidazo[4,5-c]quinolin-4-amine]",effectiveness at a low dose,effective
